Drawing on ChEMBL document CHEMBL3045069, “Antifeedant activity of quinones from Ventilago madaraspatana” (2001), this text covers Activity for eight compounds.

Format in all cases: functional
For experiment [1], the system named is Henosepilachna vigintioctopunctata. Nature of the experiment: Antifeedant activity against Henosepilachna vigintioctopunctata in Solanum nigrum leaves assessed as mean leaf area fed at 10 ug/cm'2 by dual choice leaf disk bioassay (reference value: 0.78 +/- 0.04 to 0.99 +/- 0.17 cm'2).
Experiment [2] concerns Spodoptera litura. Nature of the experiment: Antifeedant activity against Spodoptera litura in Ricinus communis leaves assessed as mean leaf area fed at 10 ug/cm'2 by dual choice leaf disc bioassay (reference value: 52.8 +/- 2.50 to 53.6 +/- 4.76 cm'2).
Experiment [3] deals with Henosepilachna vigintioctopunctata. Nature of the experiment: Antifeedant activity against Henosepilachna vigintioctopunctata in Solanum nigrum leaves assessed as mean leaf area fed by dual choice leaf disk bioassay. Further details: concentration or dose not given beside the values.
The test system is the same in experiment [4]. As to the kind of experiment: Antifeedant activity against Henosepilachna vigintioctopunctata in Solanum nigrum leaves assessed as mean leaf area fed at 1 ug/cm'2 by dual choice leaf disk bioassay (reference value: 0.75 +/- 0.06 to 0.92 +/- 0.05 cm'2).
Experiment [5] concerns Spodoptera litura. As to the kind of experiment: Antifeedant activity against Spodoptera litura in Ricinus communis leaves assessed as mean leaf area fed by dual choice leaf disc bioassay. Further details: concentration or dose not given beside the values.
The subject of experiment [6] is Spodoptera litura. As to the kind of experiment: Antifeedant activity against Spodoptera litura in Ricinus communis leaves assessed as mean leaf area fed at 5 ug/cm'2 by dual choice leaf disc bioassay (reference value: 52.6 +/- 1.34 to 55.6 +/- 3.71 cm'2).
The subject of experiment [7] is Henosepilachna vigintioctopunctata. As to the kind of experiment: Antifeedant activity against Henosepilachna vigintioctopunctata in Solanum nigrum leaves assessed as mean leaf area fed at 5 ug/cm'2 by dual choice leaf disk bioassay (reference value: 0.74 +/- 0.02 to 0.91 +/- 0.01 cm'2).
For experiment [8], the system named is Spodoptera litura. As to the kind of experiment: Antifeedant activity against Spodoptera litura in Ricinus communis leaves assessed as mean leaf area fed at 1 ug/cm'2 by dual choice leaf disc bioassay (reference value: 53 +/- 2.44 to 53.6 +/- 2.61 cm'2).

`C/C=C(\C)C(=O)O[C@H]1C[C@@H](OC(C)=O)[C@@]2(C(=O)OC)CO[C@H]3[C@@H](O)[C@@](C)([C@]45O[C@@]4(C)[C@H]4C[C@@H]5O[C@@H]5OC=C[C@@]54O)[C@H]4[C@]1(CO[C@]4(O)C(=O)OC)[C@@H]32` [AZADIRACTIN]: the Activity was 0.05 cm2 in experiment [1]; 5 cm2 with Spodoptera litura [2]; 56% in experiment [3]; 0.4 cm2 in experiment [4]; 60% with Spodoptera litura [5]; 13.5 cm2 in the experiment with Spodoptera litura [6]. The Activity turned out to be 0.2 cm2 in experiment [7] and 20.3 cm2 in the experiment on Spodoptera litura [8].

For the compound `COc1c2c(c(O)c3c1C(=O)C1=C(C[C@H](C)O[C@@H]1C)C3=O)OCO2` [VENTILOQUINONE A], the Activity in experiment [1] is 0.07 cm2; in the experiment on Spodoptera litura [2] it was 7.2 cm2; in experiment [3], 47%; in experiment [4] it was 0.46 cm2; in the experiment on Spodoptera litura [5], 40%; in the experiment on Spodoptera litura [6], 19.8 cm2. In addition, the values for the Activity (in experiment [7]; in the experiment with Spodoptera litura [8]) were 0.28 cm2 and 25.2 cm2, respectively.

As to `COc1cc(OC)c2c(c1OC)C(=O)C1=C(C2=O)[C@@H](C)O[C@@H](C)C1` [VENTILOQUINONE E], the Activity in experiment [1] was determined as 0.21 cm2; in the experiment on Spodoptera litura [2], 13.3 cm2; in experiment [3], 29%; in experiment [4], 0.58 cm2; in the experiment on Spodoptera litura [5], 25%; in the experiment on Spodoptera litura [6] it was 23.3 cm2. In addition, the Activity in experiment [7] was 0.39 cm2; in the experiment with Spodoptera litura [8] it was 35.1 cm2.

For `COc1c2c(c(O)c3c1C(=O)c1coc(C)c1C3=O)OCO2` [VENTILONE B], the Activity in experiment [1] is listed as 0.19 cm2; in the experiment on Spodoptera litura [2] it was 13 cm2; in experiment [3] it was 31%; in experiment [4], 0.56 cm2; in the experiment on Spodoptera litura [5] it was 27%; in the experiment on Spodoptera litura [6], 23 cm2. In addition, the Activity in experiment [7] came out at 0.37 cm2; with Spodoptera litura [8] it was 34.9 cm2.

On to `Cc1cc(O)c2c(c1)C(=O)c1cc(O)cc(O)c1C2=O` [EMODIN], for which the Activity in experiment [1] was 0.13 cm2; with Spodoptera litura [2] it was 11 cm2; in experiment [3], 44%; in experiment [4], 0.48 cm2; in the experiment with Spodoptera litura [5], 31%; in the experiment on Spodoptera litura [6], 20.5 cm2. The figures for the Activity (in experiment [7]; in the experiment with Spodoptera litura [8]) were 0.3 cm2 and 33.2 cm2, respectively.

For `Cc1cc(O)c2c(c1)C(=O)c1cccc(O)c1C2=O` [CHRYSOPHANOL], the Activity in experiment [1] was 0.25 cm2; in the experiment with Spodoptera litura [2] it was 13.6 cm2; in experiment [3] it was 26%; in experiment [4], 0.61 cm2; in the experiment with Spodoptera litura [5] it was 20%; in the experiment on Spodoptera litura [6], 24 cm2. Besides, the Activity in experiment [7] amounted to 0.43 cm2; in the experiment on Spodoptera litura [8], 40.4 cm2.

In the case of `COc1cc(O)c2c(c1)C(=O)c1cc(C)cc(O)c1C2=O` [PHYSCION], the Activity in experiment [1] came to 0.15 cm2; with Spodoptera litura [2], 11.3 cm2; in experiment [3] it was 34%; in experiment [4] it was 0.52 cm2; in the experiment on Spodoptera litura [5], 30%; with Spodoptera litura [6], 21.6 cm2. Further, the Activity in experiment [7] is recorded as 0.32 cm2; in the experiment with Spodoptera litura [8], 33.4 cm2.

With `COc1c2c(c(OC)c3c1C(=O)C1=C(C3=O)[C@@H](C)O[C@@H](C)C1)OCO2` [VENTILOQUINONE B], the Activity in experiment [1] was 0.17 cm2; in the experiment with Spodoptera litura [2], 11.6 cm2; in experiment [3], 32%; in experiment [4], 0.54 cm2; in the experiment with Spodoptera litura [5], 29%; in the experiment on Spodoptera litura [6], 22.5 cm2. For the same compound, the values for the Activity (in experiment [7]; in the experiment with Spodoptera litura [8]) were 0.34 cm2 and 33.8 cm2, respectively.
